Source: patent US20050000824A1, “Phosphorus-borates with low melting points” (priority 2001, published 2005)

Assays:
Assay type in all cases: physicochemical
[1] = Determination of solubility (qualitative, mixing ionic liquid with solvent)
Experimental: Solubility was determined only qualitatively by mixing approximately 0.5 ml of the ionic liquid with the same amount of organic solvent and shaking. All samples were checked a second time after several hours to ensure, that no slow phase separation had occured.

[2] = Determination of viscosity (Brookfield Cone and Plate Viscometer)
Experimental: Viscosity was measured using an LVDV-II Brookfield Cone and Plate Viscometer (1% accuracy, 0.2 repeatability). The sample cup of the viscometer was fitted with luer and purge fittings, so that a positive current of dry dinitrogen was maintained at all times during the measurements, thus avoiding absorption of atmospheric moisture. The sample cup was jacketed with a circulating water bath that was controlled by a circulator bath Grant LTD 6G (+0.1° C. accuracy).

[3] = Thermal decomposition observed with melting point determination; settings: thermal stability

In the case of CCCCCCCCCCCCCC[P+](CCCCCC)(CCCCCC)CCCCCC.c1ccc2c(c1)O[B-]1(O2)Oc2ccccc2O1 [[R4P] [BBB], [(C6)3P(C14)][BBB]], the Solubility ([1]; solvent acetonitrile) is reported as “Y*”, the Solubility ([1]; solvent hexane) is reported as “N**” and the Solubility ([1]; solvent iso-propyl alcohol) is reported as “Y*”. It also gave a Viscosity ([2]; 15 ° C.) of 6184 cP, a Viscosity ([2]; 20 ° C.) of 3735 cP and a Viscosity ([2]; 25 ° C.) of 2439 cP. For the same compound, the Viscosity ([2]; 30 ° C.) was 1593 cP, the Viscosity ([2]; 35 ° C.) was 1087 cP and the Viscosity ([2]; 40 ° C.) was 739.8 cP. The Viscosity ([2]; 45 ° C.) was 538.1 cP, the Viscosity ([2]; 50 ° C.) was 386.7 cP and the Viscosity ([2]; 55 ° C.) was 288.3 cP. The Viscosity ([2]; 60 ° C.) was 217.2 cP, the Viscosity ([2]; 65 ° C.) was 168.2 cP and the Viscosity ([2]; 70 ° C.) was 126.3 cP. The Viscosity ([2]; 75 ° C.) was 100.2 cP, the Viscosity ([2]; 80 ° C.) was 81.0 cP and the Viscosity ([2]; 85 ° C.) was 65.2 cP. The Viscosity ([2]; 90 ° C.) was 50.2 cP, the Viscosity ([2]; 95 ° C.) was 40.91 cP and the “decomposition (temperature)” value [3] was “above 200 °C”.
In the case of CCCCCCCCCCCCCC[P+](CCCCCC)(CCCCCC)CCCCCC.c1ccc2c(c1)O[B-]1(Oc3ccccc3-2)Oc2ccccc2-c2ccccc2O1 [[R4P] [BBPB], [(C6)3P(C14)][BBPB]], the Solubility ([1]; solvent acetonitrile) is reported as “Y*”, the Solubility ([1]; solvent iso-propyl alcohol) is reported as “Y*” and the Viscosity ([2]; 5 ° C.) is reported as 95020 cP. For the same compound, the Viscosity ([2]; 10 ° C.) was 59233 cP, the Viscosity ([2]; 15 ° C.) was 33737 cP and the Viscosity ([2]; 20 ° C.) was 20660 cP. The Viscosity ([2]; 25 ° C.) was 12813 cP, the Viscosity ([2]; 30 ° C.) was 8245 cP and the Viscosity ([2]; 35 ° C.) was 5453 cP. It also gave a Viscosity ([2]; 40 ° C.) of 3675 cP, a Viscosity ([2]; 45 ° C.) of 2703 cP and a Viscosity ([2]; 50 ° C.) of 1953 cP. For the same compound, the Viscosity ([2]; 55 ° C.) was 1393 cP, the Viscosity ([2]; 60 ° C.) was 1022 cP and the Viscosity ([2]; 65 ° C.) was 759.0 cP. For the same compound, the Viscosity ([2]; 70 ° C.) was 550.7 cP, the Viscosity ([2]; 75 ° C.) was 333.9 cP and the Viscosity ([2]; 80 ° C.) was 209.2 cP. It also gave a Viscosity ([2]; 85 ° C.) of 173.0 cP and a Viscosity ([2]; 90 ° C.) of 177.8 cP.
For CCCCCCCCCCCCCC[P+](CCCCCC)(CCCCCC)CCCCCC.O=C1O[B-]2(OC(=O)c3ccccc3O2)Oc2ccccc21 [[R4P] [BSB], [(C6)3P(C14)][BSB]], the Solubility ([1]; solvent acetonitrile) was “Y*”, the Solubility ([1]; solvent hexane) was “N**” and the Viscosity ([2]; 5 ° C.) was 7334 cP. The Viscosity ([2]; 10 ° C.) was 4241 cP, the Viscosity ([2]; 15 ° C.) was 2663 cP and the Viscosity ([2]; 20 ° C.) was 1730 cP. It also gave a Viscosity ([2]; 25 ° C.) of 1164 cP, a Viscosity ([2]; 30 ° C.) of 801.4 cP and a Viscosity ([2]; 35 ° C.) of 566.3 cP. It also gave a Viscosity ([2]; 40 ° C.) of 407.0 cP, a Viscosity ([2]; 45 ° C.) of 300.4 cP and a Viscosity ([2]; 50 ° C.) of 229.6 cP. It also gave a Viscosity ([2]; 55 ° C.) of 171.4 cP, a Viscosity ([2]; 60 ° C.) of 132.6 cP and a Viscosity ([2]; 65 ° C.) of 106.3 cP. For the same compound, the Viscosity ([2]; 70 ° C.) was 85.1 cP, the Viscosity ([2]; 75 ° C.) was 68.4 cP and the Viscosity ([2]; 80 ° C.) was 56.4 cP. For the same compound, the Viscosity ([2]; 85 ° C.) was 47.2 cP, the Viscosity ([2]; 90 ° C.) was 39.9 cP and the Viscosity ([2]; 95 ° C.) was 34.1 cP.
